Results published in the NIST ThermoML archive (doi:10.1016/j.fluid.2014.09.011).
± gives the expanded uncertainty stated by the source.

Test: activity coefficient (dimensionless); of the first substance listed, at infinite dilution; xn = mol fraction of the nth substance listed
Conditions: 298.15 K; 238 kPa; Liquid; Chromatography; x1 = 0

Q: With `CC(C)(C)Cl` [2-chloro-2-methylpropane] + C1CCCCC1 as the molecule, how does the activity coefficient read?
A: The activity coefficient was 1.2 ± 0.2.

Q: Which activity coefficient does the source give for `CC(C)(C)Cl` [2-chloro-2-methylpropane] + CC(C)O here?
A: The activity coefficient was 3 ± 0.6.

Q: Which activity coefficient does the source give for `CC(C)(C)Cl` [2-chloro-2-methylpropane] + CC(O)C(C)O here?
A: Its activity coefficient is 12.3 ± 2.

Q: For `CC(C)(C)Cl` [2-chloro-2-methylpropane] + CC(O)CCO, which activity coefficient is on record?
A: Its activity coefficient is 18.1 ± 3.1.

Q: With `CC(C)(C)Cl` [2-chloro-2-methylpropane] + CC(O)CO as the molecule, how does the activity coefficient read?
A: Its activity coefficient is 17.3 ± 2.1.

Q: With `CC(C)(C)Cl` [2-chloro-2-methylpropane] + CCC(O)CO as the molecule, how does the activity coefficient read?
A: Its activity coefficient is 6.4 ± 0.5.

Q: Which activity coefficient does the source give for `CC(C)(C)Cl` [2-chloro-2-methylpropane] + CCCCCCC here?
A: Its activity coefficient is 1.02 ± 0.08.

Q: With `CC(C)(C)Cl` [2-chloro-2-methylpropane] + CCCCCCCC as the molecule, how does the activity coefficient read?
A: Its activity coefficient is 1.3 ± 0.2.

Q: Which activity coefficient does the source give for `CC(C)(C)Cl` [2-chloro-2-methylpropane] + CCCCCCO here?
A: Its activity coefficient is 2.4 ± 0.2.

Q: Which activity coefficient does the source give for `CC(C)(C)Cl` [2-chloro-2-methylpropane] + CCCCCO here?
A: Its activity coefficient is 2.4 ± 0.4.

Q: Which activity coefficient does the source give for `CC(C)(C)Cl` [2-chloro-2-methylpropane] + CCCCO here?
A: The activity coefficient was 2.4 ± 0.4.

Q: Which activity coefficient does the source give for `CC(C)(C)Cl` [2-chloro-2-methylpropane] + CCCO here?
A: The activity coefficient was 3.1 ± 0.4.

Q: Which activity coefficient does the source give for `CC(C)(C)Cl` [2-chloro-2-methylpropane] + CCO here?
A: Its activity coefficient is 4.5 ± 0.6.

Q: With `CC(C)(C)Cl` [2-chloro-2-methylpropane] + CCOC(C)=O as the molecule, how does the activity coefficient read?
A: Its activity coefficient is 0.9 ± 0.2.

Q: For `CC(C)(C)Cl` [2-chloro-2-methylpropane] + CNC=O, which activity coefficient is on record?
A: The activity coefficient was 6.3 ± 0.3.

Q: With `CC(C)(C)Cl` [2-chloro-2-methylpropane] + CO as the molecule, how does the activity coefficient read?
A: Its activity coefficient is 6.1 ± 0.3.

Q: For `CC(C)(C)Cl` [2-chloro-2-methylpropane] + COCCO, which activity coefficient is on record?
A: The activity coefficient was 2.9 ± 0.4.

Q: With `CC(C)(C)Cl` [2-chloro-2-methylpropane] + ClCCCl as the molecule, how does the activity coefficient read?
A: The activity coefficient was 0.99 ± 0.1.

Q: With `CC(C)(C)Cl` [2-chloro-2-methylpropane] + OCCO as the molecule, how does the activity coefficient read?
A: Its activity coefficient is 51.7 ± 10.

Q: For `CC(C)(C)Cl` [2-chloro-2-methylpropane] + OCCOCCO, which activity coefficient is on record?
A: Its activity coefficient is 11.2 ± 2.

Q: For `CC(C)(C)Cl` [2-chloro-2-methylpropane] + OCCOCCOCCO, which activity coefficient is on record?
A: Its activity coefficient is 6.8 ± 0.8.

Q: For `CC(C)(C)Cl` [2-chloro-2-methylpropane] + c1ccccc1, which activity coefficient is on record?
A: The activity coefficient was 0.89 ± 0.08.
